# Assay results taken from patent US8497365B2, “Cyclodextrin-based polymers for therapeutics delivery” (priority 2007, dated 2013).
# Like-named read-outs stand apart in the source and are kept apart here.
# Experiments:
# [1] = test system: HT-29 colorectal carcinoma xenografts; assay: Efficacy study in subcutaneous HT29 xenograft; conditions: for Deaths TR (treatment related) / Regressions CR (complete regression) / Regressions PR (partial regression) / Regressions TFS (tumor-free survivor): n=10; for Median TTE (time to endpoint): endpoint 1000 mm^3 or Day 90
# Procedure: Efficacy was evaluated in nude mice bearing subcutaneously implanted HT-29 colorectal carcinoma xenografts. HRLN female nu/nu mice were set up with 1 mm^3 HT-29 tumor fragments s.c. in the flank. The pair match was then done when the tumors reached an average size of 80 to 120 mg and was followed by beginning treatment. Dosing solutions were prepared daily and body weight was determined bi-weekly until the end of the study. Caliper measurements were taken bi-weekly to the end of the study. Animals were monitored individually, and the endpoint of the experiment was a tumor volume of 1 g or 90 days, whichever came first. […] When the endpoint was reached, the animals were euthanized.
# Tubulysin A was administered as a solution in 10% DMSO:1% Tween 80:89% Saline. The vehicle was 10% DMSO:1% Tween 80:89% Saline.
# HT-29 (colon) cells = assay: Antiproliferative activity in vitro; format: cell-based, human
# [2] = for Day of mean BW Nadir / # of TR (treatment related deaths) / Avg. Day of TR: qwkx3 iv
# Procedure: HRLN female nu/nu mice were set up and dosing solutions were prepared. Body weight was determined biweekly until the end of the study. The endpoint was where mean weight loss exceeded 20% or >10% of animals in a group died, dosing was immediately stopped. Moribund animals were euthanized following PRC SOP. All animals were euthanized 14 days post final dose.
# [3] = neutral pH
# [4] = test system: human ovarian carcinoma cell line A2780; assay: Cytotoxicity of etoposide derivatives, MTS assay; format: cell-based; conditions: A2780, 72 h
# Procedure: The cytotoxicity of drug-polymer conjugates and linker-drug precursors was determined in the human ovarian carcinoma cell line A2780. […] 10,000 cells per well were seeded in a 96-well plate and incubated at 37° C. for 24 hours, at which time drug was added to triplicate wells at various concentrations. After 72 hours of incubation at 37° C. in the presence of drug, cells were washed with PBS, incubated for 1 hour with an MTS solution, and analyzed according to manufacturer's instructions (CellTiter 96 one solution cell proliferation assay, Promega, Madison, Wis.).
smiles,measurement,setting,value
CC[C@]1(O)C[C@@H]2CN(CCc3c([nH]c4ccccc34)[C@@](C(=O)OC)(c3cc4c(cc3OC)N(C)[C@H]3[C@@](O)(C(=O)OC)[C@H](OC(C)=O)[C@]5(CC)C=CCN6CC[C@]43[C@@H]65)C2)C1 [Vinblastine],antitumor effectiveness compared to CDP-PEG-SS-Tubulysin,[1]; 4 mg/kg qwkx3 i.v.,significantly less effective
same,% TGD,[1]; 4 mg/kg qwkx3 i.v. (Group 3),33.89%
same,BW Nadir (%),[1]; 4 mg/kg qwkx3 i.v. (Group 3),−3.60%
same,Statistical Significance vs G1 (vehicle),[1]; 4 mg/kg qwkx3 i.v. (Group 3),** (** = 0.001< P < 0.01)
same,Statistical Significance vs G4 (CDP-S-S-TUB qwkx3),[1]; 4 mg/kg qwkx3 i.v. (Group 3),*** (*** = P < 0.001)
same,"TC (tumor growth delay, T−C)",[1]; 4 mg/kg qwkx3 i.v. (Group 3),11.4 days
same,Deaths TR (treatment related),[1]; 4 mg/kg qwkx3 i.v. (Group 3),0
same,Regressions CR (complete regression),[1]; 4 mg/kg qwkx3 i.v. (Group 3),0
same,Regressions PR (partial regression),[1]; 4 mg/kg qwkx3 i.v. (Group 3),0
same,Regressions TFS (tumor-free survivor),[1]; 4 mg/kg qwkx3 i.v. (Group 3),0
same,Median TTE (time to endpoint),[1]; 4 mg/kg qwkx3 i.v. (Group 3),45.05
"CC[C@H](C)[C@H](NC(=O)[C@H]1CCCCN1C)C(=O)N(COC(=O)CC(C)C)[C@H](C[C@@H](OC(C)=O)c1nc(C(=O)N[C@@H](Cc2ccc(O)cc2)C[C@H](C)C(=O)O)cs1)C(C)C [Tubulysin A, tubulysin A]",IC50,HT-29 (colon) cells,1.3 nM
same,IC50,NCI-H1299 (lung) cells,2.8 nM
same,IC50,A2780 (ovarian) cells,2.4 nM
same,Day of mean BW Nadir,[2]; 0.05 mg/kg,5 days
same,# of TR (treatment related deaths),"[2]; 0.05 mg/kg, n=5",0
same,Avg. Day of TR,[2]; 0.3 mg/kg,9
same,Day of mean BW Nadir,[2]; 0.3 mg/kg,8 days
same,# of TR (treatment related deaths),"[2]; 0.3 mg/kg, n=4",4
same,Avg. Day of TR,[2]; 1 mg/kg,4
same,Day of mean BW Nadir,[2]; 1 mg/kg,3 days
same,# of TR (treatment related deaths),"[2]; 1 mg/kg, n=4",4
same,Avg. Day of TR,[2]; 3 mg/kg,3
same,Day of mean BW Nadir,[2]; 3 mg/kg,2 days
same,# of TR (treatment related deaths),"[2]; 3 mg/kg, n=4",4
same,maximum tolerated dose (MTD),"[2]; nude mice, conjugate in Tubulysin equivalents",0.05 mg/kg
same,solubility in water,[3],100 µg/mL
same,% TGD,[1]; 0.1 mg/kg qwkx3 i.v. (Group 2),2.42%
same,BW Nadir (%),[1]; 0.1 mg/kg qwkx3 i.v. (Group 2),−26.80%
same,"TC (tumor growth delay, T−C)",[1]; 0.1 mg/kg qwkx3 i.v. (Group 2),0.81 days
same,Deaths TR (treatment related),[1]; 0.1 mg/kg qwkx3 i.v. (Group 2),5
same,Regressions CR (complete regression),[1]; 0.1 mg/kg qwkx3 i.v. (Group 2),0
same,Regressions PR (partial regression),[1]; 0.1 mg/kg qwkx3 i.v. (Group 2),0
same,Regressions TFS (tumor-free survivor),[1]; 0.1 mg/kg qwkx3 i.v. (Group 2),0
same,Median TTE (time to endpoint),[1]; 0.1 mg/kg qwkx3 i.v. (Group 2),34.46
same,mortality,"[1]; 0.1 mg/kg qwkx3 i.v., HT-29 xenograft mice",50%
same,maximum body weight loss,"[1]; 0.1 mg/kg qwkx3 i.v., on day 26",26.8%
same,toxicity of the free drug,[1]; even at 0.1 mg/kg,severely toxic
COc1cc([C@@H]2c3cc4c(cc3[C@@H](O[C@@H]3O[C@@H]5CO[C@@H](C)O[C@H]5[C@H](O)[C@H]3O)[C@H]3COC(=O)[C@H]23)OCO4)cc(OC)c1O [etoposide],IC50,[4],200 nM
